Reference: the supplement of paper PMC11451515

Tested on: SEM cells
Test: cell viability relative to DMSO control; higher = less cytotoxic
Conditions: 48 h
Method in brief: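 Viability values are per-plate percentages of DMSO wells, with background from cell-free wells. Library compounds in DMSO were pin-dosed, in an 11-point threefold series from 47 μM to 0.79 nM, onto NOMO1 or SEM (500 cells/well) or P12-Ichikawa (1000 cells/well) leukemia cells in 1536-well plates (5 μl). Those cells had been adapted for at least four passages in each medium, and CellTiter-Glo One luminescence was read after 48 h at 37°C.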

[1] = HPLM + 10% dialyzed FBS, 0.000781 µM
[2] = HPLM + 10% dialyzed FBS, 0.00234 µM
[3] = HPLM + 10% dialyzed FBS, 0.00702 µM
[4] = HPLM + 10% dialyzed FBS, 0.0211 µM
[5] = HPLM + 10% dialyzed FBS, 0.0632 µM
[6] = HPLM + 10% dialyzed FBS, 0.19 µM
[7] = HPLM + 10% dialyzed FBS, 0.569 µM
[8] = HPLM + 10% dialyzed FBS, 1.71 µM
[9] = HPLM + 10% dialyzed FBS, 5.12 µM
[10] = HPLM + 10% dialyzed FBS, 15.4 µM
[11] = HPLM + 10% dialyzed FBS, 46.1 µM
[12] = RPMI 5 mM glucose + 10% FBS, 0.000781 µM
[13] = RPMI 5 mM glucose + 10% FBS, 0.00234 µM
[14] = RPMI 5 mM glucose + 10% FBS, 0.00702 µM
[15] = RPMI 5 mM glucose + 10% FBS, 0.0211 µM
[16] = RPMI 5 mM glucose + 10% FBS, 0.0632 µM
[17] = RPMI 5 mM glucose + 10% FBS, 0.19 µM
[18] = RPMI 5 mM glucose + 10% FBS, 0.569 µM
[19] = RPMI 5 mM glucose + 10% FBS, 1.71 µM
[20] = RPMI 5 mM glucose + 10% FBS, 5.12 µM
[21] = RPMI 5 mM glucose + 10% FBS, 15.4 µM
[22] = RPMI 5 mM glucose + 10% FBS, 46.1 µM
[23] = RPMI 5 mM glucose + 10% dialyzed FBS, 0.000781 µM
[24] = RPMI 5 mM glucose + 10% dialyzed FBS, 0.00234 µM
[25] = RPMI 5 mM glucose + 10% dialyzed FBS, 0.00702 µM
[26] = RPMI 5 mM glucose + 10% dialyzed FBS, 0.0211 µM
[27] = RPMI 5 mM glucose + 10% dialyzed FBS, 0.0632 µM
[28] = RPMI 5 mM glucose + 10% dialyzed FBS, 0.19 µM
[29] = RPMI 5 mM glucose + 10% dialyzed FBS, 0.569 µM
[30] = RPMI 5 mM glucose + 10% dialyzed FBS, 1.71 µM
[31] = RPMI 5 mM glucose + 10% dialyzed FBS, 5.12 µM
[32] = RPMI 5 mM glucose + 10% dialyzed FBS, 15.4 µM
[33] = RPMI 5 mM glucose + 10% dialyzed FBS, 46.1 µM

Row | Structure (SMILES) | cell viability [1] [%] | cell viability [2] [%] | cell viability [3] [%] | cell viability [4] [%] | cell viability [5] [%] | cell viability [6] [%] | cell viability [7] [%] | cell viability [8] [%] | cell viability [9] [%] | cell viability [10] [%] | cell viability [11] [%] | cell viability [12] [%] | cell viability [13] [%] | cell viability [14] [%] | cell viability [15] [%] | cell viability [16] [%] | cell viability [17] [%] | cell viability [18] [%] | cell viability [19] [%] | cell viability [20] [%] | cell viability [21] [%] | cell viability [22] [%] | cell viability [23] [%] | cell viability [24] [%] | cell viability [25] [%] | cell viability [26] [%] | cell viability [27] [%] | cell viability [28] [%] | cell viability [29] [%] | cell viability [30] [%] | cell viability [31] [%] | cell viability [32] [%] | cell viability [33] [%]
1 | Cc1cn2cc(C(=O)N(C)CCO)cc(N[C@@H]3CCOc4cccc(C)c43)c2n1 | 90.6 | 107 | 106 | 101 | 105 | 107 | 113 | 114 | 109 | 113 | 104 | 84.3 | 88.8 | 75 | 87.1 | 80.7 | 82.9 | 95.8 | 81.1 | 87.2 | 67.6 | 81.5 | 88.9 | 93.7 | 90 | 110 | 95.3 | 113 | 94.1 | 106 | 108 | 95.6 | 94.9
2 | CC(C(C)N1CC(=O)NC(=O)C1)N1CC(=O)NC(=O)C1 (stereo unspecified) | 97.2 | 136 | 116 | 125 | 116 | 128 | 123 | 106 | 95.2 | 58.4 | 40.5 | 73.4 | 79.9 | 101 | 102 | 92 | 104 | 80.8 | 60.1 | 49 | 31 | 19.7 | 86 | 93.3 | 120 | 134 | 122 | 115 | 128 | 91.3 | 65.7 | 39.1 | 35.1
